From ChEMBL document CHEMBL3232866, “Design of novel potent antihyperlipidemic agents with antioxidant/anti-inflammatory properties: exploiting phenothiazine's strong antioxidant activity” (J Med Chem, 2014)
Activity calls are given as the source filed them. No cut-off for these calls is given here.

What was measured:
Mus musculus [1] = assay: Effect on food intake in chronic high-fat diet (2.5 w/w cholesterol, 0.5% w/w cholic acid, 10% w/w peanut oil) fed SKH-2 mouse at 56 umol/kg, ip bid for 30 days; assay type: ADME, organism-based; conditions: in vivo, 720 h
Mus musculus [2] = assay: Effect on body weight in chronic high-fat diet (2.5 w/w cholesterol, 0.5% w/w cholic acid, 10% w/w peanut oil) fed SKH-2 mouse at 56 umol/kg, ip bid for 30 days; assay type: ADME, organism-based; conditions: in vivo, 720 h
Mus musculus [3] = assay: Effect on blood glucose level in chronic high-fat diet (2.5 w/w cholesterol, 0.5% w/w cholic acid, 10% w/w peanut oil) fed SKH-2 mouse at 56 umol/kg, ip bid for 30 days; assay type: ADME, organism-based; conditions: in vivo, 720 h
Mus musculus [4] = assay: Antidyslipidemic activity in chronic high-fat diet (2.5 w/w cholesterol, 0.5% w/w cholic acid, 10% w/w peanut oil) fed SKH-2 mouse assessed as HDL/LDL ratio in plasma at 56 umol/kg, ip bid for 30 days measured on day 30 (reference value: 0.2 no unit); assay type: functional
Mus musculus [5] = assay: Antiatherosclerotic activity in apoE-/- transgenic mouse assessed as decrease in primary atherosclerotic lesions administered for 3.5 months; assay type: functional, organism-based
Mus musculus [6] = assay: Hepatotoxicity in apoE-/- transgenic mouse assessed as liver enzymes level administered for 3.5 months; assay type: toxicity, organism-based; conditions: in vivo
[7] = Antioxidant activity in rat liver microsome membrane assessed as inhibition of lipid peroxidation after 45 mins by TBARS-based spectrophotometric assay; assay type: functional, microsomes
[8] = system: Radical scavenging activity; assay: Antioxidant activity assessed as DPPH radical scavenging activity up to 50 uM measured within 15 mins; assay type: functional
[9] = system: Radical scavenging activity; assay: Antioxidant activity assessed as DPPH radical scavenging activity after 30 mins; assay type: functional
[10] = target: T1, Squalene synthase (Rattus norvegicus) (UniProt Q02769); assay: (§1) Inhibition of squalene synthase in rat liver microsomes assessed as decrease in conversion of [3H]FPP to squalene
T1 sequence (whole entry): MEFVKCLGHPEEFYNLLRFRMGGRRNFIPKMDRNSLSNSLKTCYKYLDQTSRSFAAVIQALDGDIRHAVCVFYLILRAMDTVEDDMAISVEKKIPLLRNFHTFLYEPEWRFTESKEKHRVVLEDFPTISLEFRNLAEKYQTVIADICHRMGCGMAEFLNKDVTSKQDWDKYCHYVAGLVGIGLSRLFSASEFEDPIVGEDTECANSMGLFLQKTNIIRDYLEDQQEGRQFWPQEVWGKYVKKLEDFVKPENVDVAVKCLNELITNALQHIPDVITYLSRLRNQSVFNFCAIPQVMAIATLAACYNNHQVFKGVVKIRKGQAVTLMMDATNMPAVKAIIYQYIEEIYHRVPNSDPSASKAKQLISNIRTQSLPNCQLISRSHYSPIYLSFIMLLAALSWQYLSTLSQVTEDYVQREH

Squalene synthase = target: T2, Squalene synthase (Rattus norvegicus, UniProt Q02769); assay: as §1
T2 sequence (Q02769 whole entry): T1 sequence (whole entry)

[11] = target: T3, Prostaglandin G/H synthase 1 (Bos taurus) (UniProt O62664); assay: Inhibition of bovine COX-1 assessed as PGF2-alpha formation using arachidonic acid as substrate at 20 uM by enzyme immunoassay
T3 sequence (whole entry): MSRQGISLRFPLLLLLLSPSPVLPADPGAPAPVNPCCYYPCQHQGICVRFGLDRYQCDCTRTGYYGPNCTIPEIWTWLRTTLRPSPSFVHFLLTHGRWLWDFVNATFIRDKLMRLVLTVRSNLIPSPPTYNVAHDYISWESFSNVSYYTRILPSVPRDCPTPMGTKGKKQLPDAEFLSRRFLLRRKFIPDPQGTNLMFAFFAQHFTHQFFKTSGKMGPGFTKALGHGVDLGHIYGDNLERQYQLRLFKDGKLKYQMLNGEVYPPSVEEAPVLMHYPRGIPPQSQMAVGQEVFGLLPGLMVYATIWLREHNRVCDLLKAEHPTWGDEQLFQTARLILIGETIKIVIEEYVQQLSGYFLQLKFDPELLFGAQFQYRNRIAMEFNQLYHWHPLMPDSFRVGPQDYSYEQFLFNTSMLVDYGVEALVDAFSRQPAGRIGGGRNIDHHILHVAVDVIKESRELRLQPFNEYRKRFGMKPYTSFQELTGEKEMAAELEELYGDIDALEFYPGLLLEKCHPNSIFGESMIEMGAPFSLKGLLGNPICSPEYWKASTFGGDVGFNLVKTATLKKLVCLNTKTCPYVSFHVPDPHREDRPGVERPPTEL

Glycine max = assay: Inhibition of soybean lipoxygenase using sodium linoleate as substrate up to 100 uM measured for 6 mins
Rattus norvegicus [12] = assay: In vivo antidyslipidemic activity against Triton WR 1339-induced hyperlipidemic Wistar rat model assessed as decrease in total cholesterol level in plasma at 56 umol/kg, ip administered as single dose 1 hr after Triton WR 1339 challenge measured after 24 hrs; assay type: functional
Rattus norvegicus [13] = assay: In vivo antidyslipidemic activity against Triton WR 1339-induced hyperlipidemic Wistar rat model assessed as decrease in LDL-cholesterol level in plasma at 56 umol/kg, ip administered as single dose 1 hr after Triton WR 1339 challenge measured after 24 hrs; assay type: functional
Rattus norvegicus [14] = assay: In vivo antidyslipidemic activity against Triton WR 1339-induced hyperlipidemic Wistar rat model assessed as decrease in triglyceride level in plasma at 56 umol/kg, ip administered as single dose 1 hr after Triton WR 1339 challenge measured after 24 hrs; assay type: functional
Mus musculus [15] = assay: Antidyslipidemic activity in chronic high-fat diet (2.5 w/w cholesterol, 0.5% w/w cholic acid, 10% w/w peanut oil) fed SKH-2 mouse assessed as decrease in total cholesterol level in plasma at 56 umol/kg, ip bid for 21 days; assay type: functional; conditions: SKH-2, Plasma, 504 h
Mus musculus [16] = assay: Antidyslipidemic activity in chronic high-fat diet (2.5 w/w cholesterol, 0.5% w/w cholic acid, 10% w/w peanut oil) fed SKH-2 mouse assessed as decrease in LDL level in plasma at 56 umol/kg, ip bid for 21 days; assay type: functional; conditions: SKH-2, Plasma, 504 h
Mus musculus [17] = assay: Antidyslipidemic activity in chronic high-fat diet (2.5 w/w cholesterol, 0.5% w/w cholic acid, 10% w/w peanut oil) fed SKH-2 mouse assessed as decrease in total cholesterol level in plasma at 56 umol/kg, ip bid for 30 days measured on day 30; assay type: functional; conditions: SKH-2, Plasma, 720 h
Mus musculus [18] = assay: Antidyslipidemic activity in chronic high-fat diet (2.5 w/w cholesterol, 0.5% w/w cholic acid, 10% w/w peanut oil) fed SKH-2 mouse assessed as decrease in LDL level in plasma at 56 umol/kg, ip bid for 30 days measured on day 30; assay type: functional; conditions: SKH-2, Plasma, 720 h
Mus musculus [19] = assay: Antidyslipidemic activity in chronic high-fat diet (2.5 w/w cholesterol, 0.5% w/w cholic acid, 10% w/w peanut oil) fed SKH-2 mouse assessed as increase in HDL level in plasma at 56 umol/kg, ip bid for 30 days measured on day 30; assay type: functional
Mus musculus [20] = assay: Antidyslipidemic activity in chronic high-fat diet (2.5 w/w cholesterol, 0.5% w/w cholic acid, 10% w/w peanut oil) fed SKH-2 mouse assessed as triglyceride level in plasma at 56 umol/kg, ip bid for 30 days measured on day 30; assay type: functional, organism-based

IC50 [7]: 0.47 µM
IC50 [9]: 191 µM
inhibition [10]: Dose-dependent effect
IC50 (Squalene synthase): 5 µM
inhibition [11]: 92%
inhibition (Glycine max): inactive
Structure (SMILES): CN1CCOC(O)(c2ccc3c(c2)Nc2ccccc2S3)C1 (racemic)
Activity (Mus musculus [1]): Non-toxic
Activity (Mus musculus [2]): Non-toxic
Activity (Mus musculus [3]): Non-toxic
Ratio (Mus musculus [4]): 1.2
inhibition (Mus musculus [5]): Active
Activity (Mus musculus [6]): Non-toxic
Activity [8]: Active
inhibition in vivo at 56 µmol/kg (Rattus norvegicus [12]): 70%
inhibition in vivo at 56 µmol/kg (Rattus norvegicus [13]): 80%
inhibition in vivo at 56 µmol/kg (Rattus norvegicus [14]): 94%
inhibition in vivo at 56 µmol/kg (Mus musculus [15]): 45%
inhibition in vivo at 56 µmol/kg (Mus musculus [16]): 58%
inhibition in vivo at 56 µmol/kg (Mus musculus [17]): 53%
inhibition in vivo at 56 µmol/kg (Mus musculus [18]): 76%
Activity (Mus musculus [19]): 120%
Activity (Mus musculus [20]): inactive
